Earlier results on one sequence are cited in patent US12611671B2, “Methods, systems and kits for in-pen assays” (Bruker Cellular Analysis, Inc., priority 2016, dated 2026).

For this data set, the target named is IgG. The settings on record: (Fc); read-out: Affinity for IgG.

With “DCAWHLGELVWCT [CPD 4, Asp Cys Ala Trp His Leu Gly Glu Leu Val Trp Cys Thr]”, the Kd is 100 nM.
